Values quoted from earlier work, collected in patent publication US11819508B2 (priority 2020, dated 2023).
Where two headings read alike, the source gives them in different places.

B1: IFN β-1b: cytokine in the interferon family, subcutaneous (protein, UniProt P01574 22-187, looked up, variant C17S)
Interferon beta: MSYNLLGFLQRSSNFQSQKLLWQLNGRLEYCLKDRMNFDIPEEIKQLQQFQKEDAALTIYEMLQNIFAIFRQDSSSTGWNETIVENLLANVYHQINHLKTVLEEKLEKEDFTRGKLMSSLHLKRYYGRILHYLKAKEYSHCAWTIVRVEILRNFYFINRLTGYLRN
modifications: lacks N-terminal Met1, non-glycosylated
notes: cytokine in the interferon family, subcutaneous

Experiments:
[1] = in vivo
Covid-19 = settings: subcutaneous; subjects hospitalized with Covid-19

Molecule | half-life [1] | solubility (in aqueous solutions) | solubility (in water or saline solutions) | solubility (in water, 0.1 N HCl or NaOH, methanol, and ethanol) | clinical improvement as assessed by NEWS 2 and SOFA score and shortened hospital stay (Covid-19)
2-[[(hexadecyloxy)hydroxyphosphenyl]oxy]-N,N,N-trimethylethylammonium inner salt [Miltefosine] | long half-life | freely soluble | readily soluble | freely soluble | 
B1 |  |  |  |  | clinical improvement
